Source: US10272095B2 (GlaxoSmithKline Intellectual Property Development Limited, priority 2015, dated 2019)
Structures can show the parent of a compound that is named as a salt.

test system: NQO1 specific enzyme activity in BEAS-2B cells; test: BEAS-2B NQO1 MTT assay; assay type: cell-based; settings: Homo sapiens, BEAS-2B, 48 h, NQO1 specific enzyme activity induction in BEAS-2B cells, 48 hours; read-out: EC50
Text: NAD(P)H:quinone oxidoreductase 1 (NQO1), also called DT diaphorase, is a homodimeric FAD-containing enzyme that catalyzes obligatory NAD(P)H-dependent two-electron reductions of quinones and protects cells against the toxic and neoplastic effects of free radicals and reactive oxygen species arising from one-electron reductions. The transcription of NQO1 is finely regulated by NRF2, and thus NQO1 activity is a good marker for NRF2 activation. On day one, frozen BEAS-2B cells (ATCC) are thawed in a water bath, counted, and re-suspended at a concentration of 250,000 cells/mL. Fifty microliters of cells are plated in 384 well black clear-bottomed plates. Plates are incubated at 37° C., 5% CO2 overnight. On day two, plates are centrifuged and 50 nL of compound or controls are added to the cells. Plates are then incubated at 37° C., 5% CO2 for 48 hours. On day four, medium is aspirated from the plate and crude cell lysates are made by adding 13 uL of 1× Cell Signaling Technologies lysis buffer with 1 Complete, Mini, EDTA-free Protease Inhibitor Tablet (Roche) for each 10 mL of lysis buffer. After lysis plates are incubated for 20 minutes at room temperature. Two microliters of lysate are removed for use in Cell Titer Glo assay (Promega) and MTT cocktail is prepared (Prochaska et. al. 1998) for measurement of NQO1 activity. Fifty microliters of MTT cocktail is added to each well, plate is centrifuged, and analyzed on an Envision plate reader (Perkin Elmer) using Absorbance 570 nm label for 30 minutes. Product formation is measured kinetically and the pEC50 of NQO1 specific activity induction is calculated by plotting the change in absorbance (Delta OD/min) versus the log of compound concentration followed by 3-parameter fitting.
EC50s<1 nM (+++++), EC50s 10 nM-1 nM (++++), EC50s 10-100 nM (+++), EC50s 100 nM-1 uM (++), EC50s 1 uM-10 uM (+), EC50s>10 uM (−), or were not determined (ND).

Row | Compound | EC50 [µM]
1 | Cc1c([C@@H](CC(=O)O)c2ccc3c(c2)[C@H](N2Cc4ccccc4OC(C)(C)C2)CC3)ccc2c1nnn2C (single isomer, unassigned) [Example 41, 3-(1,4-Dimethyl-1H-benzo[d][1,2,3]triazol-5-yl)-3-(3-(2,2-dimethyl-2,3-dihydrobenzo[f][1,4]oxazepin-4(5H)-yl)-2,3-dihydro-1H-inden-5-yl)propanoic Acid, Formic Acid Salt] | 0.001 to 0.01
2 | Cc1c(C(CC(=O)O)c2ccc3c(c2)C(N2Cc4cc(Cl)ccc4OC(C)(C)C2)CC3)ccc2c1nnn2C (stereo not drawn) [Example 21, 3-(3-(7-Chloro-2,2-dimethyl-2,3-dihydrobenzo[f][1,4]oxazepin-4(5H)-yl)-2,3-dihydro-1H-inden-5-yl)-3-(1,4-dimethyl-1H-benzo[d][1,2,3]triazol-5-yl)propanoic Acid, Formic Acid Salt] | 0.001 to 0.01
3 | CCC1CCC(CN2C(=O)CC3Cc4ccc(C(CC(=O)O)c5ccc6c(nnn6C)c5C)cc4C32)CC1 (stereo not drawn) [Example 2, 3-(1,4-Dimethyl-1H-1,2,3-benzotriazol-5-yl)-3-{1-[(4-ethylcyclohexyl)methyl]-2-oxo-1H,2H,3H,3aH,4H,8bH-indeno[1,2-b]pyrrol-7-yl}propanoic Acid] | 0.01 to 0.1
4 | Cc1c(C(c2ccc3c(c2)C(N2Cc4ccccc4O[C@H](C)C2)CC3)C(C)(C)C(=O)O)ccc2c1nnn2C (stereo partly drawn) [Example 32, 3-(1,4-Dimethyl-1H-benzo[d][1,2,3]triazol-5-yl)-2,2-dimethyl-3-(3-((R)-2-methyl-2,3-dihydrobenzo[f][1,4]oxazepin-4(5H)-yl)-2,3-dihydro-1H-inden-5-yl)propanoic Acid, Formic Acid Salt] | 0.001 to 0.01
5 | COc1cc(C(CC(=O)O)c2ccc3c(c2)C(N2Cc4cc(C)ccc4O[C@H](C)C2)CC3)c(C)c2nnn(C)c12 (stereo partly drawn) [Example 39, 3-(3-((R)-2,7-Dimethyl-2,3-dihydrobenzo[f][1,4]oxazepin-4(5H)-yl)-2,3-dihydro-1H-inden-5-yl)-3-(7-methoxy-1,4-dimethyl-1H-benzo[d][1,2,3]triazol-5-yl)propanoic Acid, Formic Acid Salt] | 0.001 to 0.01
6 | Cc1c(C(c2ccc3c(c2)C(N2Cc4ccccc4OC(C)(C)C2)CC3)C(C)(C)C(=O)O)ccc2c1nnn2C (stereo not drawn) [Example 27, 3-(1,4-Dimethyl-1H-benzo[d][1,2,3]triazol-5-yl)-3-(3-(2,2-dimethyl-2,3-dihydrobenzo[f][1,4]oxazepin-4(5H)-yl)-2,3-dihydro-1H-inden-5-yl)-2,2-dimethylpropanoic Acid, 2 Formic Acid Salt] | < 0.001
7 | Cc1c(C(CC(=O)O)c2ccc3c(c2)C(N2Cc4ccccc4O[C@H](C)C2)CCC3)ccc2c1nnn2C (stereo partly drawn) [Example 66, 3-(1,4-Dimethyl-1H-benzo[d][1,2,3]triazol-5-yl)-3-(8-((R)-2-methyl-2,3-dihydrobenzo[f][1,4]oxazepin-4(5H)-yl)-5,6,7,8-tetrahydronaphthalen-2-yl)propanoic Acid] | 0.1 to 1
8 | COc1cc(C(CC(=O)O)c2ccc3c(c2)C(N2Cc4cnccc4OC(C)(C)C2)CC3)cc2nnn(C)c12 (stereo not drawn) [Example 46, 3-(3-(2,2-Dimethyl-2,3-dihydropyrido[3,4-f][1,4]oxazepin-4(5H)-yl)-2,3-dihydro-1H-inden-5-yl)-3-(7-methoxy-1-methyl-1H-benzo[d][1,2,3]triazol-5-yl)propanoic Acid, Formic Acid Salt] | 0.01 to 0.1
9 | COc1ccc2c(c1)CN(C1CCc3ccc(C(CC(=O)O)c4ccc5c(nnn5C)c4C)cc31)CC(C)(C)O2 (stereo not drawn) [Example 23, 3-(1,4-Dimethyl-1H-benzo[d][1,2,3]triazol-5-yl)-3-(3-(7-methoxy-2,2-dimethyl-2,3-dihydrobenzo[f][1,4]oxazepin-4(5H)-yl)-2,3-dihydro-1H-inden-5-yl)propanoic Acid] | 0.001 to 0.01
10 | Cc1ccc2c(c1)CN(C1CCc3ccc(C(c4ccc5c(nnn5C)c4C)C(C)(C)C(=O)O)cc31)C[C@@H](C)O2 (stereo partly drawn) [Example 31, 3-(1,4-Dimethyl-1H-benzo[d][1,2,3]triazol-5-yl)-3-(3-((R)-2,7-dimethyl-2,3-dihydrobenzo[f][1,4]oxazepin-4(5H)-yl)-2,3-dihydro-1H-inden-5-yl)-2,2-dimethylpropanoic Acid, Formic Acid Salt] | 0.001 to 0.01
11 | Cc1c(C(c2ccc3c(c2)C(N2Cc4cccnc4O[C@H](C)C2)CC3)C(C)(C)C(=O)O)ccc2c1nnn2C (stereo partly drawn) [Example 42, 3-(1,4-Dimethyl-1H-benzo[d][1,2,3]triazol-5-yl)-2,2-dimethyl-3-(3-((R)-2-methyl-2,3-dihydropyrido[3,2-f][1,4]oxazepin-4(5H)-yl)-2,3-dihydro-1H-inden-5-yl)propanoic Acid, Formic Acid Salt] | 0.001 to 0.01
12 | CC[C@@H]1CN(C2CCc3ccc(C(CC(=O)O)c4ccc5c(nnn5C)c4C)cc32)Cc2ccccc2O1 (stereo partly drawn) [Example 50, 3-(1,4-Dimethyl-1H-benzo[d][1,2,3]triazol-5-yl)-3-(3-((R)-2-ethyl-2,3-dihydrobenzo[f][1,4]oxazepin-4(5H)-yl)-2,3-dihydro-1H-inden-5-yl)propanoic Acid, Formic Acid Salt] | 0.01 to 0.1
13 | Cc1c(C(CC(=O)O)c2ccc3c(c2)C(N2CCOc4ccccc4C2)CC3)ccc2c1nnn2C (stereo not drawn) [Example 58, 3-(3-(2,3-Dihydrobenzo[f][1,4]oxazepin-4(5H)-yl)-2,3-dihydro-1H-inden-5-yl)-3-(1,4-dimethyl-1H-benzo[d][1,2,3]triazol-5-yl)propanoic Acid, Formic Acid Salt] | 0.1 to 1
14 | Cc1c([C@H](c2ccc3c(c2)[C@H](N2Cc4ccncc4OC(C)(C)C2)CC3)C(C)(C)C(=O)O)ccc2c1nnn2C (racemic) [Example 70, rac-(R)-3-(1,4-Dimethyl-1H-benzo[d][1,2,3]triazol-5-yl)-3-(rac-(S)-3-(2,2-dimethyl-2,3-dihydropyrido[4,3-f][1,4]oxazepin-4(5H)-yl)-2,3-dihydro-1H-inden-5-yl)-2,2-dimethylpropanoic acid, Trifluoroacetic acid salt] | 0.001 to 0.01
15 | Cc1c([C@H](c2ccc3c(c2)[C@@H](N2Cc4ccccc4OC(C)(C)C2)CC3)C(C)(C)C(=O)O)ccc2c1nnn2C (stereo in doubt) [Example 78, rel-(S)-3-(1,4-Dimethyl-1H-benzo[d][1,2,3]triazol-5-yl)-3-(rel-(S)-3-(2,2-dimethyl-2,3-dihydrobenzo[f][1,4]oxazepin-4(5H)-yl)-2,3-dihydro-1H-inden-5-yl)-2,2-dimethylpropanoic acid] | 0.001 to 0.01
16 | Cc1c(C(c2ccc3c(c2)C(N2CCOc4ncccc4C2)CC3)C(C)(C)C(=O)O)ccc2c1nnn2C (stereo not drawn) [Example 54, 3-(3-(2,3-Dihydropyrido[3,2-f][1,4]oxazepin-4(5H)-yl)-2,3-dihydro-1H-inden-5-yl)-3-(1,4-dimethyl-1H-benzo[d][1,2,3]triazol-5-yl)-2,2-dimethylpropanoic Acid, Formic Acid Salt, Formic Acid Salt] | 0.1 to 1
17 | Cc1c([C@@H](c2ccc3c(c2)[C@@H](N2Cc4ccccc4OC(C)(C)C2)CC3)C(C)(C)C(=O)O)ccc2c1nnn2C (stereo in doubt) [Example 80, rel-(R)-3-(1,4-Dimethyl-1H-benzo[d][1,2,3]triazol-5-yl)-3-(rel-(S)-3-(2,2-dimethyl-2,3-dihydrobenzo[f][1,4]oxazepin-4(5H)-yl)-2,3-dihydro-1H-inden-5-yl)-2,2-dimethylpropanoic acid] | 0.1 to 1
18 | CC[C@@H]1CN(C2CCc3ccc(C(c4ccc5c(nnn5C)c4C)C(C)(C)C(=O)O)cc32)Cc2ccccc2O1 (stereo partly drawn) [Example 30, 3-(1,4-Dimethyl-1H-benzo[d][1,2,3]triazol-5-yl)-3-(3-((R)-2-ethyl-2,3-dihydrobenzo[f][1,4]oxazepin-4(5H)-yl)-2,3-dihydro-1H-inden-5-yl)-2,2-dimethylpropanoic Acid, Formic Acid Salt] | 0.001 to 0.01

same assay, conditions: Homo sapiens, BEAS-2B, NQO1 specific enzyme activity in BEAS-2B cells; in some determinations; read-out: EC50 values in some determinations

Row | Compound | EC50 [µM]
19 | Cc1c(C(c2ccc3c(c2)C(N2Cc4ccccc4OC(C)(C)C2)CC3)C(C)(C)C(=O)O)ccc2c1nnn2C (stereo not drawn) [Example 27, 3-(1,4-Dimethyl-1H-benzo[d][1,2,3]triazol-5-yl)-3-(3-(2,2-dimethyl-2,3-dihydrobenzo[f][1,4]oxazepin-4(5H)-yl)-2,3-dihydro-1H-inden-5-yl)-2,2-dimethylpropanoic Acid, 2 Formic Acid Salt] | < 0.00017

same assay, conditions: NQO1 specific enzyme activity induction in BEAS-2B cells, 48 hours; read-out: EC50

Row | Compound | EC50 [µM]
20 | CC[C@@H]1CN([C@H]2CCc3ccc([C@@H](c4ccc5c(nnn5C)c4C)C(C)(C)C(=O)O)cc32)Cc2cnccc2O1 (relative stereo) [Example 72, rel-(S)-3-(1,4-Dimethyl-1H-benzo[d][1,2,3]triazol-5-yl)-3-(rel-(S)-3-((R)-2-ethyl-2,3-dihydropyrido[3,4-f][1,4]oxazepin-4(5H)-yl)-2,3-dihydro-1H-inden-5-yl)-2,2-dimethylpropanoic acid] | 0.001 to 0.01
21 | Cc1c(C(CC(=O)O)c2ccc3c(c2)C2C(CCN2C(=O)C(C)c2ccccc2)C3)ccc2c1nnn2C (stereo not drawn) [Example 8, 3-(1,4-Dimethyl-1H-1,2,3-benzotriazol-5-yl)-3-[1-(2-phenylpropanoyl)-1H,2H,3H,3aH,4H,8bH-indeno[1,2-b]pyrrol-7-yl]propanoic Acid] | 1 to 10
